Values quoted from earlier work in patent US20110136913A1, “ASSESSING AND TREATING BREAST CANCER PATIENTS” (priority 2008, published 2011).

Test system: MCF-7 cell lines that stably over express exogenous HER-2
Settings: MCF-7 cells over expressing HER-2, mouse model

## CC/C(=C(\c1ccccc1)c1ccc(OCCN(C)C)cc1)c1ccccc1 [tamoxifen]
  Effect on tumor growth: potent agonist on tumor growth
